Where two headings read alike, the source gives them in different places. Marks after values point to notes of the source that are not given here.
How the values were obtained:
[1] = test system: hepatocellular carcinoma bel-7404 (BEL-7404); assay: MTT antiproliferative assay, BEL-7404; type: cell-based, human; details: read-out: Effect against cell viability (IC50), BEL-7404
Experimental: (§1) All newly synthesized acridinyl derivatives (4–6) were screened for their anticancer activities in comparison to the reference compounds, 5-FU and cis-platinum. Compounds 4–6 were tested for their in vitro antitumor activities against HFF, MGC-803, BEL-7404, NCI-H460, and T24 tumor cell lines, and human normal liver cells (LO2), and the results are shown in Table 1. Most of the compounds had strong selective potency against MGC-803 and T24 cancer cells. […] In the T24 cell line assay, many compounds, especially the series of compound 4, had significant activity against T24. This implies that there is a significant increase in potency after the introduction of the aroyl thiourea group. […] To our delight, most 1,2,4-triazolethiones (5) and 1,2,4-thiadiazoles (6) have low toxicity to LO2 compared with the positive control.
(§2) Test samples, including compounds 4–6 and commercial classical anticancer drugs (5-FU and cis-platinum), were screened for their anti-cancer activity against HFF human foreskin fibroblast cells, MGC-803 human gastric cancer cells, BEL-7404 human hepatocellular carcinoma cells, NCI-H460 human large cell carcinoma cells, and T24 human bladder carcinoma cells using the 3-(4,5-dimethylthiazol-2-yl)-2,5-diphenyltetrazoliumbromide (MTT) assay method cited in the literature. The initial concentration of all the test samples was 100 μg/mL, which was serially diluted in complete medium with ten-fold dilutions to give six concentrations per compound. Their cytotoxicity was determined in 96-well flat bottomed microtiter plates. All the test samples were tested in triplicate. The results were expressed as the drug concentration that inhibited cell growth by 50% as compared to the controls (IC50). The IC50 values were calculated from regression lines obtained from the percent cell growth inhibition plotted as a function of the logarithm of the dose.

[2] = test system: large cell lung cancer cells (NCI-H460); assay: MTT antiproliferative assay, NCI-H460; type: cell-based, human; details: read-out: Effect against cell viability (IC50), NCI-H460
Experimental: as §1, §2

[3] = test system: bladder cancer cells (T24); assay: MTT antiproliferative assay, T24; type: cell-based, human; details: read-out: Effect against cell viability (IC50), T24
Experimental: as §1, §2

[4] = test system: human normal liver cells (LO2); assay: Cytotoxicity against normal liver cells LO2; type: cell-based; details: MTT, read-out: Effect against cell viability (IC50), LO2
Experimental: as §1, §2

[5] = test system: human gastric cancer cells-803 (MGC-803); assay: MTT antiproliferative assay, MGC-803; type: cell-based; details: read-out: Effect against cell viability (IC50), MGC-803
Experimental: as §1, §2

[6] = target: T1, DNA topoisomerase I (topo I) (Bos taurus, UniProt F1MN93); assay: Topo I inhibitory activity (pBR322); type: biochemical; details: at 100 µM
T1 construct: purchased Takara Bio Inc. (Shiga, Japan)
T1 sequence (F1MN93 1-767): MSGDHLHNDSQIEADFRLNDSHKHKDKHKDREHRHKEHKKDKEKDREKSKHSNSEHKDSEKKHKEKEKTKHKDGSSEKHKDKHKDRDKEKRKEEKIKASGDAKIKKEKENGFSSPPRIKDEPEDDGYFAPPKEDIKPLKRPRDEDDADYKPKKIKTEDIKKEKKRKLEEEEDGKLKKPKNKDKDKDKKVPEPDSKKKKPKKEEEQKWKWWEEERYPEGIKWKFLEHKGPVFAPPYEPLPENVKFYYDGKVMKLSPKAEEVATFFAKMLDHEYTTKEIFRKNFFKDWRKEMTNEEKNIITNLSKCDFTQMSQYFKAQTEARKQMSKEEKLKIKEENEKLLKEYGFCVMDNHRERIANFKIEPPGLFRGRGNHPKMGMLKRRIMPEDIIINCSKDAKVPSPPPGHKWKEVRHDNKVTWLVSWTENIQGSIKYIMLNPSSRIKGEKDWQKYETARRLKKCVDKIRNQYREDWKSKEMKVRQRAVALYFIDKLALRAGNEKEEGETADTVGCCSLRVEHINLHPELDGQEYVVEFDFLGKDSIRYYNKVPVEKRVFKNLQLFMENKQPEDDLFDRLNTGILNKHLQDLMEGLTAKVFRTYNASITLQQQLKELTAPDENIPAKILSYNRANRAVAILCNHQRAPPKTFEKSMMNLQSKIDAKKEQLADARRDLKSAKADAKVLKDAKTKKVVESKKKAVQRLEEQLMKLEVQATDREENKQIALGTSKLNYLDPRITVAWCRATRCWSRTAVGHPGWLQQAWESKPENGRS

[7] = test system: human foreskin fibroblasts (HFF); assay: MTT antiproliferative assay, HFF; type: cell-based; details: read-out: Effect against cell viability (IC50), HFF
Experimental: as §1, §2

[8] = test system: subintestinal veins (SIVs) in zebrafish embryos; assay: Zebrafish angiogenesis assay (subintestinal veins, NBT/BCIP staining); type: in vivo; details: 1 mg/mL; for area of blood vessels: additional blood vessels were formed on the blood vessel edge
Text: Currently, the zebrafish has emerged as a valuable model organism to substitute traditional models for studying angiogenesis inhibitors. The genes of zebrafish show 70–80% similarity to humans, and the vascular structure of zebrafish has high similarity to that of other vertebrates. Therefore, the subintestinal veins (SIVs) in the zebrafish embryos are used as evaluation indicators for anti-angiogenesis inhibitors. In this study, NBT/BCIP vascular staining was used to observe the angiogenesis effect of representative drugs (4h, 4f, 5d, 5h, 6g and 6h) in a zebrafish model. […] Compared with the blank control group, the area of the meshed pattern vessel and the number of vascular branches in the network decreased after the administration of compounds 4h, 5d, 5h and 6h.
The 24 hpf zebrafish embryos were dechorionated with a 1 gL^−1 pronase treatment and maintained in distilled water in 12-well cell culture plates (each well contained 20 embryos). A negative control group containing zebrafish embryos in distilled water and a vehicle treatment group that was treated with 2% dimethyl sulfoxide (DMSO) were prepared. The anti-angiogenic compounds were diluted to 1 mg/mL. After incubating at 28 °C for […], the embryos were immersed in 4% paraformaldehyde and dehydrated by gradient ethanol. Subsequently, the embryos were balanced in NTMT buffer (5 M NaCl + 1 M Tris [pH 9.0–9.5] + 1 M MgCl2+ 10% Tween), and nitrotetrazolium blue chloride (NBT) and p-toluidine salt (BCIP) staining were performed. To evaluate the effect of compounds on the angiogenesis of zebrafish embryos, the growth of embryonic sub-intestinal veins (SIVs) at 72 hpf was observed using an IX71 Olympus microscope (Hamburger, Germany). The length of the SIVs was calculated using the image J 1.8.0 software (Bethesda, MD, USA).

zebrafish embryos = test system: zebrafish embryos; parameters: mortality rate of zebrafish embryos: dose or concentration left out as unconfirmed; details: for MAR (malformation rate) / MOR (mortality rate): zebrafish embryos 72 hpf
Experimental: In this experiment, 2% DMSO was used to dissolve the target products, and the abnormal rate (MAR) and mortality rate (MOR) of zebrafish embryos (72 hpf) were used for statistics.
The zebrafish embryos were collected at 6 hpf and randomly divided into naive control (embryos maintained in distilled water), vehicle control (embryos treated with 2% DMSO), and drug groups. Stock solutions of all drugs were prepared in 2% DMSO as a solubilizing agent and diluted to three concentrations (0.5 mg/mL, 1 mg/mL, and 2 mg/mL). Each group had 20 embryos per test concentration. […] Each compound was evaluated in three independent biological experiments.

Structure (SMILES)	IC50 [1] [µM]	IC50 [2] [µM]	IC50 [3] [µM]	IC50 [4] [µM]	IC50 ([5]; MTT) [µM]	IC50 [7] [µM]	IC50 ([1]; Homo sapiens) [µM]	IC50 ([2]; Homo sapiens) [µM]	IC50 ([3]; Homo sapiens) [µM]	IC50 ([4]; Homo sapiens) [µM]	IC50 ([5]; Homo sapiens, MGC-803, MTT) [µM]	melting point [°C]	IC50 ([7]; Homo sapiens, Fibroblast) [µM]	also measured
COc1ccc2[nH]c3ccccc3c(=NC(=S)NNC(=O)c3ccc(Cl)cc3)c2c1 [4e]	25.9 ± 2.17	73.2 ± 3.67	10.3 ± 1.07	10.2 ± 1.12	25.6 ± 1.97	66.8 ± 4.52	–	–	–	–	–	–	–	topo I inhibitory activity [6]: potent
CC1=CC2C(=Nc3nnc(-c4ccccc4)s3)c3ccccc3NC2C=C1 (stereo not shown) [6g, 7-methyl-N-(5-phenyl-1,3,4-thiadiazol-2-yl)-10,10a-dihydroacridin-9(8aH)-imine]	–	–	–	–	9.95 ± 1.03	–	31.2 ± 3.27	25.9 ± 1.83	19.3 ± 1.05	> 100	9.01 ± 1.32	294 to 296	76.5 ± 2.79	area of blood vessels ([8]; zebrafish embryos): could reduce the area of blood vessels
COc1ccc2[nH]c3ccccc3c(=NC(=S)NNC(=O)c3ccncc3)c2c1 [4a, 1-2′-methoxyl acridinyl-3-4′-pyridinamide thiourea]	26.9 ± 2.58	36.4 ± 3.12	> 100	22 ± 1.71	10.9 ± 1.82	75.8 ± 3.52	–	–	–	–	–	–	–	MAR (malformation rate) (zebrafish embryos; 1 mg/mL): 85% ^c; MOR (mortality rate) (zebrafish embryos; 1 mg/mL): 15% ^c; MAR (malformation rate) (zebrafish embryos; 1.5 mg/mL): 60% ^c; MOR (mortality rate) (zebrafish embryos; 1.5 mg/mL): 40% ^c; MAR (malformation rate) (zebrafish embryos; 2 mg/mL): 55% ^c; MOR (mortality rate) (zebrafish embryos; 2 mg/mL): 45% ^c; total mortality and malformation rate (zebrafish embryos; zebrafish embryos, 2.0 mg.L^−1): 100%; area of blood vessels ([8]; zebrafish embryos): could reduce the area of blood vessels
COC1=CC2C(=Nc3nnc(-c4ccc(OC)cc4)s3)c3ccccc3NC2C=C1 (stereo not shown) [6c, 7-methoxy-N-(5-(4-methoxyphenyl)-1,3,4-thiadiazol-2-yl)-10,10a-dihydroacridin-9(8aH)-imine]	–	–	–	–	–	–	25.1 ± 2.15	30.2 ± 2.45	24.3 ± 2.34	> 100	12.1 ± 1.22	230 to 232	65.2 ± 3.92	–
COc1ccc2nc3ccccc3c(-n3c(-c4ccncc4)n[nH]c3=S)c2c1 [5a, 4-(2-methoxyacridin-9-yl)-5-(pyridin-4-yl)-2,4-dihydro-3H-1,2,4-triazole-3-thione]	–	–	–	–	–	–	22.1 ± 2.72	36.5 ± 2.96	21.2 ± 2.72	42 ± 2.31	22.4 ± 1.32	272 to 273	74.5 ± 4.03	–
CC1=CC2C(=Nc3nnc(-c4ccncc4)s3)c3ccccc3NC2C=C1 (stereo not shown) [6f, 7-methyl-N-(5-(pyridin-4-yl)-1,3,4-thiadiazol-2-yl)-10,10a-dihydroacridin-9(8aH)-imine]	–	–	–	–	–	–	40.3 ± 2.19	55.7 ± 3.28	13.9 ± 1.37	37.2 ± 2.12	12.3 ± 1.96	276 to 278	45.4 ± 2.18	–
COc1ccc(-n2c(-c3c4ccccc4nc4ccc(C)cc34)n[nH]c2=S)cc1 [5h, 4-(4-methoxyphenyl)-4-(2-methylacridin-9-yl)-2,4-dihydro-3H-1,2,4-triazole-3-thione]	40.3 ± 2.06	26.3 ± 2.51	11.2 ± 1.16	37.7 ± 2.47	10.9 ± 0.97	68.1 ± 2.64	–	–	–	–	–	–	–	mortality rate of zebrafish embryos (zebrafish embryos): ~0%; malformation rate of zebrafish embryos (zebrafish embryos; 2.0 mg.L^−1): less than 15%; MAR (malformation rate) (zebrafish embryos; 1 mg/mL): 5% ^a; MOR (mortality rate) (zebrafish embryos; 1 mg/mL): 0%; MAR (malformation rate) (zebrafish embryos; 1.5 mg/mL): 10% ^a; MOR (mortality rate) (zebrafish embryos; 1.5 mg/mL): 0%; MAR (malformation rate) (zebrafish embryos; 2 mg/mL): 15% ^a; MOR (mortality rate) (zebrafish embryos; 2 mg/mL): 0%; reduction in the vessel length (SIVs) compared to the mean vessel length for the controls ([8]; 72 hpf zebrafish embryos): ~50%; area of the meshed pattern vessel and number of vascular branches in the network ([8]; zebrafish embryos, compared with blank control group): decreased
CC1=CC2C(=Nc3nnc(-c4ccc(Cl)cc4)s3)c3ccccc3NC2C=C1 (stereo not shown) [6j, 7-methyl-N-(5-(4-chlorophenyl)-1,3,4-thiadiazol-2-yl)-10,10a-dihydroacridin-9(8aH)-imine]	–	–	–	–	–	–	48.5 ± 3.06	13.9 ± 1.83	15.5 ± 1.98	51.2 ± 3.09	13 ± 1.89	258 to 260	56.2 ± 3.16	–
COc1ccc(-c2n[nH]c(=S)n2-c2c3ccccc3nc3ccc(OC)cc23)cc1 [5c, 4-(2-methoxyacridin-9-yl)-5-(4-methoxyphenyl)-2,4-dihydro-3H-1,2,4-triazole-3-thione]	–	–	–	–	–	–	28.7 ± 2.24	36.5 ± 3.92	29.3 ± 1.91	> 100	15.1 ± 0.98	262 to 267	75.5 ± 2.92	topo I inhibitory activity [6]: potent

— publication PMC9820444, “Design and Synthesis of Acridine-Triazole and Acridine-Thiadiazole Derivatives and Their Inhibitory Effect against Cancer Cells” (International Journal of Molecular Sciences, 2022)
